Measured values from paper PMC5452262 (2016).

Key:
[1] = tested on: TBP-regulated control #1 (lacks GC-rich stem) (DNA, hairpin) TTATATAAATTTTTTATATATTTTTTTTATT; assay: fluorescence anisotropy; conditions: 150 mM NaCl, 10 mM MgCl2; 50 mM sodium phosphate pH 7.0, 25 °C; equimolar doxorubicin and DNA, 100 nM
[2] = tested on: TBP-regulated DNA-nanoswitch variant #1 (DNA, hairpin) CTATATAAACCTTTTATATATCTTGGGTAGG; assay: fluorescence anisotropy titration; conditions: 150 mM NaCl, 10 mM MgCl2; 50 mM sodium phosphate pH 7.0, 25 °C; 100 nM doxorubicin titrated with DNA
[3] = tested on: TBP-regulated DNA-nanoswitch variant #2 (DNA, hairpin) CTATATAAAGCCCTTTTATATATCTTGGGTAGGGC; assay: fluorescence anisotropy titration; conditions: 150 mM NaCl, 10 mM MgCl2; 50 mM sodium phosphate pH 7.0, 25 °C; 100 nM doxorubicin titrated with DNA
[4] = tested on: TBP-regulated DNA-nanoswitch variant #3 (DNA, hairpin) CTATATAAACCGCCCTTTTATATATCTTGGGTAGGGCGG; assay: fluorescence anisotropy titration; conditions: 150 mM NaCl, 10 mM MgCl2; 50 mM sodium phosphate pH 7.0, 25 °C; 100 nM doxorubicin titrated with DNA
[5] = tested on: antibody-regulated DNA-nanoswitch variant #1 (DNA, hairpin) TAGTTTTTTTTTTTTTTTTCTA; assay: fluorescence anisotropy titration; conditions: 150 mM NaCl, 10 mM MgCl2; 50 mM sodium phosphate pH 7.0, 25 °C; 100 nM doxorubicin titrated with DNA
[6] = tested on: antibody-regulated DNA-nanoswitch variant #2 (DNA, hairpin) TCCGTTTTTTTTTTTTTTTTCGGA; assay: fluorescence anisotropy titration; conditions: 150 mM NaCl, 10 mM MgCl2; 50 mM sodium phosphate pH 7.0, 25 °C; 100 nM doxorubicin titrated with DNA
[7] = tested on: antibody-regulated DNA-nanoswitch variant #3 (DNA, hairpin) TCGCCGTTTTTTTTTTTTTTTTCGGCGA; assay: fluorescence anisotropy titration; conditions: 150 mM NaCl, 10 mM MgCl2; 50 mM sodium phosphate pH 7.0, 25 °C; 100 nM doxorubicin titrated with DNA

binding [1]: weak | binding [2]: yes | binding [3]: yes | binding [4]: yes | binding [5]: weak | binding [6]: yes | binding [7]: yes
Compound: COc1cccc2c1C(=O)c1c(O)c3c(c(O)c1C2=O)C[C@@](O)(C(=O)CO)C[C@@H]3O[C@H]1C[C@H](N)[C@H](O)[C@H](C)O1
